Source: patent US10568328B2, “Methods and compositions for weed control” (Monsanto Technology LLC, priority 2013, dated 2020)

Test system: Amaranthus palmeri plants (R22 glyphosate resistant biotype)
Experiment: OEP80 trigger dsRNA polynucleotides followed by 2X WMAX, injury rating (FIG. 1)
Type: in vivo
Conditions: 8 nmol/plant, 0.5-1.0 percent Silwet L-77 and buffer, 2X WMAX one day later; rated 14 days after WMAX; baseline 40 percent
Method: FIG. 1. Treatment of Amaranthus palmeri with dsRNA trigger polynucleotides targeting OEP80.
The following procedure is used for all assays described in this example. Approximately four-week old Amaranthus palmeri plants (glyphosate-resistant Palmer amaranth, “R-22”) are used in this assay. Plants are treated with 0.5-1.0 percent Silwet L-77 solution freshly made with ddH2O. Two fully expanded leaves per plant (one cotyledon, one true leaf) are treated with the polynucleotide/Silwet L-77 solution. Final concentration for each dsRNA polynucleotide was 25 microM) unless otherwise stated. Twenty microliters of the solution are applied to the top surface of each of the two pre-treated leaves to provide a total of 40 microliters (1-4 nmol polynucleotide) for each plant.
Spray solutions are prepared the same day as spraying. Single oligonucleotide molecules are applied at rates between 0.04 and 0.18 mg/ml in 20 mM potassium phosphate buffer (pH 6.8) are added to spray solutions 15 to 50 minutes before spraying. One-to-two-ml spray solutions were applied using a custom low-dead-volume sprayer (“milli applicator”) at 8-30 gpa (gallons per acre) to one-to-four inch tall plants. Treated plants are place in a greenhouse set for either a 26.7/21.1° C. or 29.4/21.1° C. 14/10 hour temperature and supplemental light schedule. The amount of response relative to unsprayed treatments is collected at various time intervals up to 21 days after treatment.
A common spray nozzle used for all applications made with the track sprayer is the Turbo Teejet air induction nozzle (015) nozzle with air pressure set at a minimum of 20 psi (pounds per square inch or […]). This style nozzle is currently being utilized to lessen shear forces that can damage or otherwise change large macromolecules that can seen with other nozzle styles. The height of the spray nozzle is to be 16-18 inches above top of plant material. Treatments are to be made when plants reach the desired size, height or leaf stage.
Application rates are chosen so as to achieve percent control ratings in the range of 50 percent at the lowest rate to 90 percent control at the highest rate. The rates in this control range provide the best possible efficacy comparisons among formulations, allowing separation of relative performance of test samples. The rate of herbicide used in these studies is typically at the manufacturer's recommended use rate. On occasion lower or higher rates may be necessary depending on test objectives. The rate structure used for a given test will be dependent on the environmental conditions at the time of spray application (time of year), the plant species being treated (highly susceptible or tough to kill) and age (or size) of plants to be treated.
Amaranthus palmeri plants (R22 glyphosate resistant biotype) were treated following the protocol described in Example 3. Trigger dsRNA polynucleotides shown in Table 5 (SEQ ID NO: 1535-1573, plus strand sequence illustrated) are targeting the A. palmeri OEP80 gene coding region (SEQ ID NO: 365). The polynucleotides were topically applied at 8 nmol/plant in a composition comprising 0.5-1.0 percent Silwet L-77 and buffer followed one day later by treatment with 2× WeatherMAX (WMAX). Injury rating of the treated plants was conducted 14 days after the WMAX treatment. The control treatments were buffer alone and 2 rates (4 nmol and 8 nmol) of a trigger polynucleotide (oligo 5.3) targeting the A. palmeri EPSPS coding gene sequence. The average baseline level of injury effect of buffer plus WMAX was set at 40 percent for this experiment. […] Additionally, 4 regions of the target gene sequence were identified in which the polynucleotides in those regions were particularly effective, these regions are between nucleotide positions 369-701, 1016-1168, 1364-1622 and 1683-1792 of SEQ ID NO: 365.

Molecule | Injury rating: enhancement of the effect of WMAX (FIG. 1)
T25457: A. palmeri OEP80 trigger dsRNA polynucleotide, SEQ ID NO: 1547 (GATTCTATAAATGGATGGTACATGGAGCGTGGTCTTTTTGGCATGGTTTC; double-stranded RNA trigger, chemistry not given here, further chemistry not given here; listed as Amaranthus palmeri) [Oligo T25457] | able to enhance the effect of WMAX
T25478: A. palmeri OEP80 trigger dsRNA polynucleotide, SEQ ID NO: 1568 (GCTCAGGCCTTTCATACGTAGTGGGCTGTGGAGAAGTTTCCTTCCCTCTGTATGGTC; double-stranded RNA trigger, chemistry not given here, further chemistry not given here; listed as Amaranthus palmeri) [Oligo T25478] | able to enhance the effect of WMAX
T25465: A. palmeri OEP80 trigger dsRNA polynucleotide, SEQ ID NO: 1555 (GCTATCAGGTTTAATTGGAAGCTTTGCATATTCTCACAGGAATCTGTTTGGAAAAAATC; double-stranded RNA trigger, chemistry not given here, further chemistry not given here; listed as Amaranthus palmeri) [Oligo T25465] | able to enhance the effect of WMAX
T25475: A. palmeri OEP80 trigger dsRNA polynucleotide, SEQ ID NO: 1565 (GTTTTAATCGAGTCAACGCTCGTGCTAGGTCAGGGGTGGACATTGGTCCAGC; double-stranded RNA trigger, chemistry not given here, further chemistry not given here; listed as Amaranthus palmeri) [Oligo T25475] | able to enhance the effect of WMAX
T29213: A. palmeri OEP80 trigger dsRNA polynucleotide, SEQ ID NO: 1573 (GGATATGAAGAAGGTGCCGTTGGC; double-stranded RNA trigger, chemistry not given here, further chemistry not given here; listed as Amaranthus palmeri) [Oligo T29213] | able to enhance the effect of WMAX
T25455: A. palmeri OEP80 trigger dsRNA polynucleotide, SEQ ID NO: 1545 (GCGAAGGAGCTAATGTTCTCCCTTCCAAGTTTGTAGAGGATTCATTTC; double-stranded RNA trigger, chemistry not given here, further chemistry not given here; listed as Amaranthus palmeri) [Oligo T25455] | able to enhance the effect of WMAX
T25474: A. palmeri OEP80 trigger dsRNA polynucleotide, SEQ ID NO: 1564 (GTCTTAAGCATGGAACAAGGTCTTCCTATCTATCCTGAGTGGCTGTGTTTTAATC; double-stranded RNA trigger, chemistry not given here, further chemistry not given here; listed as Amaranthus palmeri) [Oligo T25474] | able to enhance the effect of WMAX
T25473: A. palmeri OEP80 trigger dsRNA polynucleotide, SEQ ID NO: 1563 (GCTGCTTGCCAAAGGCGAGTGTGCCTACACGGGTGACTTAGGATCCTCAATGTTAGTC; double-stranded RNA trigger, chemistry not given here, further chemistry not given here; listed as Amaranthus palmeri) [Oligo T25473] | able to enhance the effect of WMAX
T25452: A. palmeri OEP80 trigger dsRNA polynucleotide, SEQ ID NO: 1542 (GGAGGCATTAATGGCATTGAAAGCTTGCCGGGCGAATTCAGCTTTGACTGTGC; double-stranded RNA trigger, chemistry not given here, further chemistry not given here; listed as Amaranthus palmeri) [Oligo T25452] | able to enhance the effect of WMAX
T25464: A. palmeri OEP80 trigger dsRNA polynucleotide, SEQ ID NO: 1554 (GTTTCTCGGCTGGTGGTGGTATTTCGAGCGGGATAACGAGCGGACCGC; double-stranded RNA trigger, chemistry not given here, further chemistry not given here; listed as Amaranthus palmeri) [Oligo T25464] | able to enhance the effect of WMAX
T25466: A. palmeri OEP80 trigger dsRNA polynucleotide, SEQ ID NO: 1556 (GAAAAAATCAAAAAGTAAATGTCTCTCTTGAAAGAGGCCAAATCGACTCTATCTTCC; double-stranded RNA trigger, chemistry not given here, further chemistry not given here; listed as Amaranthus palmeri) [Oligo T25466] | able to enhance the effect of WMAX
T25456: A. palmeri OEP80 trigger dsRNA polynucleotide, SEQ ID NO: 1546 (GTGATGGATATGGGAAAGTGGTCAATATCAGGCGTTTGGATGAAGTGATTGATTC; double-stranded RNA trigger, chemistry not given here, further chemistry not given here; listed as Amaranthus palmeri) [Oligo T25456] | able to enhance the effect of WMAX
T25477: A. palmeri OEP80 trigger dsRNA polynucleotide, SEQ ID NO: 1567 (GTTTGCGATCGGTGGTACAAATAGTGTGAGAGGATATGAAGAAGGTGCCGTTGGC; double-stranded RNA trigger, chemistry not given here, further chemistry not given here; listed as Amaranthus palmeri) [Oligo T25477] | able to enhance the effect of WMAX
T25471: A. palmeri OEP80 trigger dsRNA polynucleotide, SEQ ID NO: 1561 (GACTTACGTTTCAGCATGCTGGTGTCCGTGATGAAAAAGGGAACCCCGTC; double-stranded RNA trigger, chemistry not given here, further chemistry not given here; listed as Amaranthus palmeri) [Oligo T25471] | able to enhance the effect of WMAX
T25454: A. palmeri OEP80 trigger dsRNA polynucleotide, SEQ ID NO: 1544 (nucleic acid, listed as Amaranthus palmeri, double-stranded RNA trigger, chemistry not given here, further chemistry not given here) GATACTAGGGATGGTATTAGATTGGTCTTTCAGGTAGAACCAAACCAGGAGTTTAGAGGACTGGTGTGC | able to enhance the effect of WMAX
T25472: A. palmeri OEP80 trigger dsRNA polynucleotide, SEQ ID NO: 1562 (nucleic acid, listed as Amaranthus palmeri, double-stranded RNA trigger, chemistry not given here, further chemistry not given here) GTCATAAAAGATTTCTACAACAGCGCTCTTACGGCAAGTGGGAATACTCATGATAATATGC | able to enhance the effect of WMAX
